Legend:
Salmonella typhimurium [1] = assay: Mutagenicity in Salmonella Typhimurium TA98 was determined; format: functional, Salmonella enterica subsp. enterica serovar Typhimurium
Escherichia coli = assay: Genotoxicity (SOSIP) on Escherichia coli PQ37 (SOS induction potential data, as a measure of genotoxicity); format: functional
Salmonella typhimurium [2] = assay: Mutagenicity in Salmonella Typhimurium TA100 was determined; format: functional, Salmonella enterica subsp. enterica serovar Typhimurium
Salmonella typhimurium [3] = assay: Mutagenicity inSalmonella Typhimurium TA98 was determined; format: functional, Salmonella enterica subsp. enterica serovar Typhimurium
Salmonella typhimurium [4] = assay: Mutagenicity inSalmonella Typhimurium TA100 was determined; format: functional, Salmonella enterica subsp. enterica serovar Typhimurium

Row | SMILES | Log TA98 (Salmonella typhimurium [1]) | Log SOSIP (Escherichia coli) | Log TA100 (Salmonella typhimurium [2]) | Log TA98 (Salmonella typhimurium [3]) | Log TA100 (Salmonella typhimurium [4])
1 | O=[N+]([O-])c1oc2ccc3ccccc3c2c1CCO | 3.59 | 3.78 |  |  | 
2 | COc1ccc2c(ccc3oc([N+](=O)[O-])cc32)c1 | 4.9 | 4.23 | 5.31 |  | 
3 | Cc1ccc2c(ccc3oc([N+](=O)[O-])cc32)c1 |  | 3.95 |  |  | 
4 | COc1ccc2c(ccc3oc([N+](=O)[O-])cc32)c1Br |  | 3.43 |  |  | 
5 | COc1cccc2cc3cc([N+](=O)[O-])oc3cc12 | 3.44 | 2.96 | 3.07 |  | 
6 | O=[N+]([O-])c1cc2cc(Cl)c3ccccc3c2o1 | 3.82 | 2.97 | 3.96 |  | 
7 | O=[N+]([O-])c1cc2ccc3cc4ccccc4cc3c2o1 | 3.88 | 4.08 |  |  | 
8 | O=[N+]([O-])c1cc2cc3ccccc3c(Br)c2o1 | 3.31 | 3.04 | 2.67 |  | 
9 | COc1ccc2ccc3oc([N+](=O)[O-])cc3c2c1Br |  | 4.46 |  |  | 
10 | Cc1c([N+](=O)[O-])oc2ccc3ccccc3c12 | 4.91 | 4.91 | 6.71 |  | 
11 | O=[N+]([O-])c1cc2ccc3c(c2o1)CCCC3 | 2.59 | 1.93 | 2.95 |  | 
12 | COC(=O)Cc1ccc2c(ccc3oc([N+](=O)[O-])cc32)c1 |  | 3.18 |  |  | 
13 | O=[N+]([O-])c1cc2c(cc3ccc4cccc5ccc2c3c45)o1 |  | 5 |  |  | 
14 | O=[N+]([O-])c1cc2c(ccc3cc4ccccc4cc32)o1 | 3.95 | 4.87 |  |  | 
15 | COc1ccc2cc3c(ccc4oc([N+](=O)[O-])cc43)cc2c1 | 4.86 | 4.77 |  |  | 
16 | O=[N+]([O-])c1cc2ccccc2o1 | 1.3 | 1.53 | 1.54 |  | 
17 | Cc1c([N+](=O)[O-])oc2c3c(ccc12)CCCC3 | 2.46 | 3.28 | 4.38 |  | 
18 | COc1ccc2ccc3oc([N+](=O)[O-])cc3c2c1 | 4.75 | 4.25 | 5.58 |  | 
19 | CC(=O)c1ccc2c(ccc3oc([N+](=O)[O-])cc32)c1 |  | 3.72 |  |  | 
20 | COc1ccc2c(ccc3oc([N+](=O)[O-])c(C)c32)c1 |  | 4.7 |  |  | 
21 | Cc1c([N+](=O)[O-])oc2ccccc12 |  | 1.2 | 3.7 |  | 
22 | CCCCc1c([N+](=O)[O-])oc2ccc3ccccc3c12 |  | 4.28 |  |  | 
23 | Cc1c([N+](=O)[O-])oc2c1ccc1ccccc12 |  | 4.34 |  |  | 

Row | SMILES | Log TA98 (Salmonella typhimurium [1]) | Log SOSIP (Escherichia coli) | Log TA100 (Salmonella typhimurium [2]) | Log TA98 (Salmonella typhimurium [3]) | Log TA100 (Salmonella typhimurium [4])
24 | CCOC(=O)COc1ccc2c(ccc3oc([N+](=O)[O-])cc32)c1 |  | 3.18 |  |  | 
25 | Cc1c([N+](=O)[O-])oc2cc3ccccc3cc12 |  | 3.34 |  |  | 
26 | Cc1c([N+](=O)[O-])oc2ccc3cc(Br)ccc3c12 |  | 4.81 |  |  | 
27 | COc1ccc2oc(-c3ccc([N+](=O)[O-])o3)cc2c1 |  | 3.08 |  |  | 
28 | O=[N+]([O-])c1cc2cc3c(cc2o1)CCCC3 | 2.63 | 2.25 | 3.11 |  | 
29 | CC(=O)Oc1ccc2c(ccc3oc([N+](=O)[O-])cc32)c1 |  | 3 |  |  | 
30 | CC(C)c1c([N+](=O)[O-])oc2ccc3ccccc3c12 |  | 3.74 |  |  | 
31 | COc1ccc2ccc3oc([N+](=O)[O-])cc3c2c1OC |  | 4.2 |  |  | 
32 | Cc1c([N+](=O)[O-])oc2ccc3c(c12)CCCC3 | 3.08 | 2.11 | 3.78 |  | 
33 | O=[N+]([O-])c1cc2c(ccc3cc(Br)ccc32)o1 | 3.61 | 4.64 | 4.16 |  | 
34 | O=[N+]([O-])c1cc2cc3ccc4cccc5ccc(c2o1)c3c45 |  | 3.72 |  |  | 
35 | COc1cc2cc([N+](=O)[O-])oc2c2ccccc12 | 3.25 | 3.45 | 4.26 |  | 
36 | COc1ccc2oc([N+](=O)[O-])cc2c1 | 1.74 | 1.89 | 2.8 |  | 
37 | CCc1c([N+](=O)[O-])oc2ccc3ccccc3c12 | 4.18 | 4.32 |  |  | 
38 | O=[N+]([O-])c1cc2c3c(ccc2o1)CCCC3 | 2.11 | 2.08 | 2.81 |  | 
39 | O=[N+]([O-])c1oc2ccc3ccccc3c2c1-c1ccccc1 |  | 4.43 |  |  | 
40 | Cc1c([N+](=O)[O-])oc2cc3c(cc12)CCCC3 | 3.32 | 3.41 | 4.54 |  | 
41 | O=[N+]([O-])c1cc2c(ccc3cc(O)ccc32)o1 |  | 3.58 |  |  | 
42 | COc1ccc2c(C)c([N+](=O)[O-])oc2c1 |  | 2.28 | 3.54 |  | 
43 | CC(=O)Cc1c([N+](=O)[O-])oc2ccc3ccccc3c12 |  | 3.43 |  |  | 
44 | COc1cc2oc([N+](=O)[O-])cc2c2ccccc12 | 3.28 | 3.86 | 3.59 |  | 
45 | COc1cc2ccccc2c2cc([N+](=O)[O-])oc12 | 4.2 | 4.04 | 4.66 |  | 
46 | O=[N+]([O-])c1cc2c(ccc3ccccc32)o1 |  | 3.96 |  | 3.33 | 4.31

From ChEMBL document CHEMBL1126635, “Mechanistic interpretation of the genotoxicity of nitrofurans (antibacterial agents) using quantitative structure-activity relationships and comparative molecular field analysis” (J Med Chem, 1993)
